{"source": "ChEMBL document CHEMBL1201862", "about": "“PubChem BioAssay data set” (2004)", "key": {"Cytochrome P450 2C9 [1]": {"biological_target": "T1, Cytochrome P450 2C9 (Homo sapiens, UniProt P11712)", "T1 sequence (P11712 whole entry)": "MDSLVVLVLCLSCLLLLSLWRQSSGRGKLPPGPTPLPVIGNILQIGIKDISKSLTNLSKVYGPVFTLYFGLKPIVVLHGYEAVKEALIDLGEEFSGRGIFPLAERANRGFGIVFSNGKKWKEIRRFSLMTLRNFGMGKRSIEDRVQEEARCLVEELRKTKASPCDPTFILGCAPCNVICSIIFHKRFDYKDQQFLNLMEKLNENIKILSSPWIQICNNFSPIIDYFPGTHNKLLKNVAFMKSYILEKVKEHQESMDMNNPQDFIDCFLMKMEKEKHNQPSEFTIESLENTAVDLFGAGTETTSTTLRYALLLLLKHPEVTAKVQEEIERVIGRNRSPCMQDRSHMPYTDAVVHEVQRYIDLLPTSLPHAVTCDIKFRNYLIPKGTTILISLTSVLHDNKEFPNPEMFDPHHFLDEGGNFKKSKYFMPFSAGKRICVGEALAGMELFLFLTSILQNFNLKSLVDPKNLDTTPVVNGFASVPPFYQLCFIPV"}, "[2]": {"assay": "NIH-3T3 fibroblast cytotoxicity, dose response, cytotoxicity control, cell-based, fluorescence, Alamar Blue, secondary assay (AID 2327);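 note: NIH-3T3 mouse fibroblasts cultured with fluconazole at 8 µg/mL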", "format": "functional"}, "[3]": {"assay": "fluconazole-exposed Candida albicans growth modulators – fluorescence, retest, confirmation (AID 2467)", "format": "functional, cell-based"}, "Cytochrome P450 2C19": {"biological_target": "Cytochrome P450 2C19 (Homo sapiens, UniProt P33261)", "sequence (P33261 whole entry)": "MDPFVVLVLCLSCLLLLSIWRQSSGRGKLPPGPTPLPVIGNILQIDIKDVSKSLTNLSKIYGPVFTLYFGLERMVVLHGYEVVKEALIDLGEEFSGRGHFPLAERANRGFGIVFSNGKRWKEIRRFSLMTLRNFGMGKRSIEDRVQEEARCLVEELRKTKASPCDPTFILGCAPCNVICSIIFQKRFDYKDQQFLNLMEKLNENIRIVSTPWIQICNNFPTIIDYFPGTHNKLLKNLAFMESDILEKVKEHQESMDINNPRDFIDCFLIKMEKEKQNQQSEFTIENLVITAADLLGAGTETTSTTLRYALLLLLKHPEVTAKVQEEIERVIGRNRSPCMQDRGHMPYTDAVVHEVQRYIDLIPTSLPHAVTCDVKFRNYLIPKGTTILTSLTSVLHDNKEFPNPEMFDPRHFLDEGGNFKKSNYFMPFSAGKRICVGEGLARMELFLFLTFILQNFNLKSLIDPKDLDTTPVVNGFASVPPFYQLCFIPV", "assay": "Cytochrome panel assay with activity outcomes. Panel member name: p450-cyp2c19 Compounds with AC50 equal or less than 10 uM are considered active", "format": "functional", "conditions": "read-out: AC50"}, "Cytochrome P450 3A4": {"biological_target": "Cytochrome P450 3A4 (Homo sapiens, UniProt P08684)", "sequence (P08684 whole entry)": "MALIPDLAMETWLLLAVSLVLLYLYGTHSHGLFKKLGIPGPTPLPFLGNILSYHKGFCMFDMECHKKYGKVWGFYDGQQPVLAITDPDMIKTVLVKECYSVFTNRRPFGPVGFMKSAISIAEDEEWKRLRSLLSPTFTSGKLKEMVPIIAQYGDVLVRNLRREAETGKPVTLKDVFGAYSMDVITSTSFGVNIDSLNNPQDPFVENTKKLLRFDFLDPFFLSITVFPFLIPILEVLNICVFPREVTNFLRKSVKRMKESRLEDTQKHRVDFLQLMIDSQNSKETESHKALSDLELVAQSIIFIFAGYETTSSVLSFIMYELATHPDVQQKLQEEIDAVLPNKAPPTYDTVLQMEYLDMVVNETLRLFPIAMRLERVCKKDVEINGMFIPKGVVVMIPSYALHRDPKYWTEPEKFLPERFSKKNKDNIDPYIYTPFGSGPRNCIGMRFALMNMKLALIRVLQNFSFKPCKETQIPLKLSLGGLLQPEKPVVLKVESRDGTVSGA"}, "Cytochrome P450 2C9 [4]": {"biological_target": "T1, Cytochrome P450 2C9", "remark": "listed apart in the source"}, "[5]": {"biological_target": "FAD-linked sulfhydryl oxidase ALR (Homo sapiens, UniProt P55789)", "sequence (P55789 whole entry)": "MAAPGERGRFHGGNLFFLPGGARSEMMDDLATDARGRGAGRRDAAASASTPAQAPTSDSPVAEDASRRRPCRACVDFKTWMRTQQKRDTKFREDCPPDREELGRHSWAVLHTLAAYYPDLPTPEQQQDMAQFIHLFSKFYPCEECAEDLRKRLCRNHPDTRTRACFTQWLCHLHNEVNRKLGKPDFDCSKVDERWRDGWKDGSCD", "assay": "ALR-catalysed DTT oxidation blockers – biochemical, H2O2 detection, luminescence, cherry-pick, dose response (AID 493248)"}, "[6]": {"biological_target": "T2, Heat shock factor protein 1 (Mus musculus, UniProt P38532)", "T2 sequence (P38532 whole entry)": "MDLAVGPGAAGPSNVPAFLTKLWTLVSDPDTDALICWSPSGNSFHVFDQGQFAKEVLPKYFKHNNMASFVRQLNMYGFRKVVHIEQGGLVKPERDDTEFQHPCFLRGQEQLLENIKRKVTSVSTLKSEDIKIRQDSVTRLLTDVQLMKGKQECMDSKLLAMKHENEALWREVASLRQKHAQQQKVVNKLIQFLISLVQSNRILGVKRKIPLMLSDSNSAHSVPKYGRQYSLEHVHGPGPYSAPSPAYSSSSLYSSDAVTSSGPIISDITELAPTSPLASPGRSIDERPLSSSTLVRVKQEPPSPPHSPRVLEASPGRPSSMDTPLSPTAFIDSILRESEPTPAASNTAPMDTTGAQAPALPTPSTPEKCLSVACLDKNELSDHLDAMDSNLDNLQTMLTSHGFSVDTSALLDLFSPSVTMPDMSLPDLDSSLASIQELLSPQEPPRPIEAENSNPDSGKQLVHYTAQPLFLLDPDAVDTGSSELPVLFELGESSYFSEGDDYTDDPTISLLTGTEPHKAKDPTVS", "assay": "enhancement of HSF1-driven luciferase signal – cell-based, NIH3T3, luminescence, dose retest, confirmation (AID 435004);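 note: stress induced by proteasome inhibitor MG132 added 30 min after compound; actives raise luminescence as potentiators of the MG132 stress response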", "format": "functional"}, "[7]": {"assay": "NIH3T3 cell viability loss – ATP luminescence, mouse fibroblasts, counter-screen, dose response (AID 2010);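 note: cells exposed to compound for about 90 hours before reading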", "format": "functional, cell-based"}, "[8]": {"assay": "Trypanosoma cruzi growth suppression in host cells – NIH3T3 host cells, beta-gal luminescence, confirmation (AID 2044);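 note: luminescent beta-galactosidase reporter signal from transgenic T. cruzi replicating inside host cells; inhibitors lower the luminescence signal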", "format": "functional, cell-based"}, "[9]": {"assay": "microbe, parasite or virus in culture", "format": "functional", "conditions": "Mycobacterium tuberculosis"}, "Cytochrome P450 2D6": {"biological_target": "Cytochrome P450 2D6 (Homo sapiens, UniProt P10635)", "sequence (P10635 whole entry)": "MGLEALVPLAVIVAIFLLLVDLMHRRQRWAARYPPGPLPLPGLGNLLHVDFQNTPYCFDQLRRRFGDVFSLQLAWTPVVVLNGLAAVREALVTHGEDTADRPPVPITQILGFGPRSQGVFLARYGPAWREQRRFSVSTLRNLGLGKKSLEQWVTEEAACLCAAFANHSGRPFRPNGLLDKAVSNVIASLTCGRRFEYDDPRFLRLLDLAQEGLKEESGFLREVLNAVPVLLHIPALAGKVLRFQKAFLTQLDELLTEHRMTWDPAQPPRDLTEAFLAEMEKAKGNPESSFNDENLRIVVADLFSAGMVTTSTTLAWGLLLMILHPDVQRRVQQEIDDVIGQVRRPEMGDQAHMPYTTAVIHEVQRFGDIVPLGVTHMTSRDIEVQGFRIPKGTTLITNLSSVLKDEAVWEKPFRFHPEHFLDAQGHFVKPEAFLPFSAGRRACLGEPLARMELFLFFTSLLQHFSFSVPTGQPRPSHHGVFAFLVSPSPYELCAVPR"}}, "note": "Calls of active or inactive are those of the source.", "data": [{"smiles": "COc1ccc(CC(=S)N2CCOCC2)cc1OC", "values": [{"measurement": "AC50", "setting": "Cytochrome P450 2C9 [1]", "result": "inconclusive"}]}, {"smiles": "O=C(CCCCCN1C(=O)c2cccc3cccc(c23)C1=O)N1CCOCC1", "values": [{"measurement": "EC50", "setting": "[2]", "result": "22.3 µM (active)"}, {"measurement": "EC50", "setting": "[3]", "result": "> 38 µM (not active)"}]}, {"smiles": "O=C(NCc1ccc(F)cc1)C1CCN(S(=O)(=O)N2CCCCC2)CC1", "values": [{"measurement": "AC50", "setting": "Cytochrome P450 2C19", "result": "31.6 µM (inconclusive)"}, {"measurement": "AC50", "setting": "Cytochrome P450 3A4", "result": "14.1 µM (inconclusive)"}, {"measurement": "AC50", "setting": "Cytochrome P450 2C9 [4]", "result": "10 µM (inconclusive)"}]}, {"smiles": "O=C(c1ccco1)N1CCN=C1SCc1cccc(Cl)c1", "values": [{"measurement": "AC50", "setting": "[5]", "result": "18.1 µM (active)"}]}, {"smiles": "Cc1cc(C)c2cc(CN(Cc3ccco3)C(S)=NCC3CCCO3)c(O)nc2c1", "note": "(stereo not given)", "values": [{"measurement": "EC50", "setting": "[6]", "result": "> 260 µM (inactive)"}]}, {"smiles": "COc1cccc(N/C([S-])=C(/C(=O)c2cc(C)n(-c3ccccc3F)c2C)[n+]2ccc(N(C)C)cc2)c1", "values": [{"measurement": "EC50", "setting": "[7]", "result": "> 60 µM (not active)"}, {"measurement": "EC50", "setting": "[8]", "result": "645 nM (active)"}, {"measurement": "CC50", "setting": "[9]", "result": "> 40 µM (active)"}]}, {"smiles": "O[C@@H]1C2CCCC1[C@]1(O)CCCCC1C2", "note": "(stereo not given in full)", "values": [{"measurement": "EC50", "setting": "[6]", "result": "> 260 µM (inactive)"}]}, {"smiles": "O=C(COc1ccc(Cl)cc1)NCCCNC(=O)c1ccccn1", "values": [{"measurement": "EC50", "setting": "[6]", "result": "> 260 µM (inactive)"}]}, {"smiles": "COc1cc(OC)c(C#N)c(S(=O)(=O)Cc2ccccc2)c1", "values": [{"measurement": "AC50", "setting": "Cytochrome P450 2C9 [1]", "result": "inconclusive"}]}, {"smiles": "O=S(=O)(c1ccccc1)N1CCC2(CCN(Cc3ccncc3)CC2)CC1", "values": [{"measurement": "AC50", "setting": "Cytochrome P450 2D6", "result": "25.1 µM (inconclusive)"}, {"measurement": "AC50", "setting": "Cytochrome P450 2C9 [4]", "result": "25.1 µM (inconclusive)"}]}, {"smiles": "O=C(c1cc(C(F)(F)F)cc(C(F)(F)F)c1)N1CCC2(CC1)CCN(c1ncccn1)CC2", "values": [{"measurement": "AC50", "setting": "Cytochrome P450 2C9 [1]", "result": "inconclusive"}]}, {"smiles": "O=C(COC(=O)C1CC2C=CC1C2)Nc1ccc2c(c1)OC(F)(F)O2", "note": "(stereo not given)", "values": [{"measurement": "EC50", "setting": "[6]", "result": "> 260 µM (inactive)"}]}, {"smiles": "Cc1cccc(N(C(=O)c2ccc(CN3CCOCC3)o2)C(C(=O)NC(C)(C)C)c2ccc(F)cc2)c1", "note": "(stereo not given)", "values": [{"measurement": "EC50", "setting": "[6]", "result": "> 260 µM (inactive)"}]}, {"smiles": "c1coc(CN2CCN(C(c3cccs3)c3nnnn3C3CCCC3)CC2)c1", "note": "(stereo not given)", "values": [{"measurement": "AC50", "setting": "Cytochrome P450 2C9 [4]", "result": "31.6 µM (inconclusive)"}]}, {"smiles": "CSc1ccc(C#N)cc1NC(=O)c1cccc(Cl)c1", "values": [{"measurement": "AC50", "setting": "Cytochrome P450 2D6", "result": "10 µM (inconclusive)"}, {"measurement": "AC50", "setting": "Cytochrome P450 2C9 [4]", "result": "39.8 µM (inconclusive)"}]}, {"smiles": "COc1ccc2[nH]c(C(=O)c3ccccc3)cc2c1", "values": [{"measurement": "AC50", "setting": "Cytochrome P450 2C9 [4]", "result": "39.8 µM (inconclusive)"}]}, {"smiles": "CSc1cccc(NC(=O)c2ccc(Cl)nc2)c1", "values": [{"measurement": "AC50", "setting": "Cytochrome P450 2D6", "result": "14.1 µM (inconclusive)"}, {"measurement": "AC50", "setting": "Cytochrome P450 2C19", "result": "25.1 µM (inconclusive)"}, {"measurement": "AC50", "setting": "Cytochrome P450 2C9 [4]", "result": "39.8 µM (inconclusive)"}]}, {"smiles": "Cc1cc2ccccc2c(=O)n1CC(=O)NCC(=O)N1CCCC1", "values": [{"measurement": "AC50", "setting": "Cytochrome P450 2C9 [1]", "result": "inconclusive"}]}, {"smiles": "CCN1C/C(=C\\c2cccc(C)c2)c2nc3ccccc3c(C(=O)O)c2C1", "values": [{"measurement": "AC50", "setting": "Cytochrome P450 2D6", "result": "17.8 µM (inconclusive)"}, {"measurement": "AC50", "setting": "Cytochrome P450 3A4", "result": "25.1 µM (inconclusive)"}, {"measurement": "AC50", "setting": "Cytochrome P450 2C9 [4]", "result": "8.91 µM (inconclusive)"}]}, {"smiles": "CCCCN1C(=O)CN(CCc2ccccc2)C(=O)C1c1ccc(OC)cc1", "note": "(stereo not given)", "values": [{"measurement": "AC50", "setting": "Cytochrome P450 2D6", "result": "39.8 µM (inconclusive)"}, {"measurement": "AC50", "setting": "Cytochrome P450 2C9 [4]", "result": "20 µM (inconclusive)"}]}, {"smiles": "CCc1ccc(N2C(=O)c3ccc4c5c(ccc(c35)C2=O)CC4)cc1", "values": [{"measurement": "AC50", "setting": "Cytochrome P450 2C9 [1]", "result": "inconclusive"}]}, {"smiles": "CCOC(=O)C1=C(c2ccccc2)NC(SC)=C(C#N)C1c1ccco1", "note": "(stereo not given)", "values": [{"measurement": "EC50", "setting": "[6]", "result": "> 260 µM (inactive)"}]}, {"smiles": "Cc1ccc(S(=O)(=O)NC2c3cccc4cccc(c34)C2Sc2nncn2C)cc1", "note": "(stereo not given)", "values": [{"measurement": "EC50", "setting": "[6]", "result": "> 260 µM (inactive)"}]}]}
